In US20070098732A1, “Immunologic compounds for prevention, protection, prophylaxis or treatment of immunological disorders, infections and cancer” (Universite De Montreal, priority 2003, published 2007):

System: EL-4 lymphoma cells
Assay: PDT of EL-4 lymphoma cells with TH9402 and light
Format: cell-based
Procedure: The strain of mice B6SJL was used for the evaluation of PDT to induce immuno-protection. In generation of tumor cell lysates, EL-4 cells (American Type Culture Collection, ATCC Accession # TIB-39) were seeded in flasks at 10^6 cells/ml and exposed to 10 μM TH9402 in serum free DMEM without phenol red medium for 40 minutes, followed by exposure to drug-free medium for 90 minutes, then illuminated with a dose of 10J/cm^2. Treated cells were incubated overnight. After incubation, cells and supernatants were collected and spun down. The resulting supernatant was collected, concentrated by vacuum speed using a molecular sieve (centriplus 3000 molecular weight cut-off), and stored frozen at −70° C. until use.

SMILES: Br.COC(=O)c1ccccc1-c1c2ccc(=N)c(Br)c-2oc2c(Br)c(N)ccc12 [TH9402, 2′-(6-amino-4,5-dibromo-3-imino-3H-xanthen-9-yl)-benzoic acid methyl ester hydrobromide]
- cell death of EL-4 lymphoma cells undergoing PDT: rapidly proceed to programmed cell death, apoptosis and/or necrosis
